One series in a line: physchem. The protocol: Assuming formation of 1:1 complex between drug and ligand, the complexation efficiency (CE) can be calculated from the slope of the phase-solubility diagram:
[formula] where So is the intrinsic substrate solubility and k1:1 stability constant of the complex.
Solubility Studies. […] An excess amount of MLT was added either to water or PVP solution (concentration ranging from 0.1 to 20% w/v) in polypropylene tubes (protected from light) and incubated with end-over-end rotation at 25° C. until equilibrium was achieved (72 hours). An aliquot was filtered (0.45 μm membrane) and the absorption measured at 270 nm (Epoch microplate spectrophotometer, BioTek, Winooski, Vt.).
PVP is known to form water soluble or insoluble complexes with various drugs with either enhancement or reduction in solubility.

Series [1] can be described thus: solubility of melatonin in excipient solutions. In kind it is physicochemical. The note with it: aqueous with cosolvent or surfactant or cyclodextrin, thermodynamic from solid. The protocol:
A saturated melatonin solution was prepared containing the indicated excipient concentrations and incubated end over end at room temperature for 72 hours. After 72 hours, solutions were filtered through a […] filter and diluted 1:10. Absorption was measured spectrophotometrically at 287 nm (excipient solutions alone were used as blanks).

A short description of series [2]: water vapor sorption of BHB. The note with it: 25° C. In kind it is physicochemical. The protocol:
Water vapor sorption. About 5 mg of sample was placed in the quartz sample pan of an automated vapor sorption balance (DVS-1000, Surface Measurement Systems, London, UK), maintained at 25° C. It was dried under dry nitrogen purge (flow rate 200 mL/min) to constant weight. Equilibrium was assumed to have been achieved if the mass change was <0.001% over 30 min. […] Equilibrium was assumed to have been achieved if the mass change was <0.005% over 30 min. The microbalance was calibrated periodically using a 100 mg standard weight.
In order to gain a deeper understanding into the water-BHB interaction, the ‘as is’ BHB was heated in the TGA up to 120° C., cooled to RT and transferred to the sample chamber of the water sorption analyzer. The other relevant details are provided in the Experimental section. There was no water sorption up to 15% RH and then the sample gained ˜3% water at 20% RH (FIG. 10). This is in excellent agreement with the water content in ‘as is’ BHB. […] However, under the experimental conditions in the water sorption analyzer (maximum dwell time of 360 minutes at any RH), equilibrium was not attained. Therefore, when the RH was further increased to 55%, a pronounced weight increase again was observed. […] There were two RH ranges, (0-20% and 35-55%) where hysteresis was observed.

The conditions of series [3]: cited from earlier work.

Each structure is given as a SMILES string. Converted amounts (≈) assume the structure as drawn. “And” between values parts separate entries of the source, which are not always exact repeats. Equal entries are not always repeated.

What is called solubility (thermodynamic) is solubility found after equilibrating the solid with the medium. What is called solubility is how much of the substance goes into solution per volume. As for `COc1ccc2[nH]cc(CCNC(C)=O)c2c1` [melatonin, 5-methoxy-N-acetyltryptamine], in “physchem”, the “molar ratio of total drug to free drug” value is on record as 1.17 and the “slope of the phase solubility diagram” value was 0.030. In addition, the thermodynamic solubility at 72 h in “physchem” (25 °C, water, thermodynamic from solid) is approximately 8 mM (≈ 1860 µg/mL). Moreover, the solubility at 72 h in series [1] (10% HPbCD/5% PEG400/5% PVP K12 solution, in 10% HPbCD/5% PEG400/5% PVP K12, room temperature) is > 43000 µM and > 10000 µg/mL. In series [1] (20% PVP solution, in 20% PVP, room temperature), the solubility at 72 h is > 43000 µM and > 10000 µg/mL.

Take `C[C@@H](O)CC(=O)O` [BHB, D-β-hydroxybutyrate]: the “water gain (water sorption)” value in series [2] (at 20% RH, BHB previously heated to 120° C.) was approximately 3%. For the same compound, the “increase in weight (water sorption, deliquescence)” value in series [2] (at 50% RH) is on record as approximately 40%.

On to `CC(O)COC[C@H]1O[C@@H]2O[C@H]3[C@H](O)[C@@H](O)[C@@H](O[C@H]4[C@H](O)[C@@H](O)[C@@H](O[C@H]5[C@H](O)[C@@H](O)[C@@H](O[C@H]6[C@H](O)[C@@H](O)[C@@H](O[C@H]7[C@H](O)[C@@H](O)[C@@H](O[C@H]8[C@H](O)[C@@H](O)[C@@H](O[C@H]1[C@H](O)[C@H]2O)O[C@@H]8COCC(C)O)O[C@@H]7COCC(C)O)O[C@@H]6COCC(C)O)O[C@@H]5COCC(C)O)O[C@@H]4COCC(C)O)O[C@@H]3COCC(C)O` (stereo partly drawn) [HPbCD, Hydroxypropyl-beta-cyclodextrin], for which the solubility entry in series [3] is “exceeds 600 mg/ml”.

Values taken from patent US10307398B2, “Resuscitation composition and methods of making and using” (Regents of the University of Minnesota, priority 2016, dated 2019).
